Columns and labels:
JAK2 = JAK2 (Homo sapiens (Human), UniProt O60674); assay: LanthaScreen JAK biochemical assay (JAK2)
JAK1 = JAK1 (Homo sapiens (Human), UniProt P23458); assay: LanthaScreen JAK biochemical assay (JAK1)
JAK3 = JAK3 (Homo sapiens (Human), UniProt P52333); assay: LanthaScreen JAK biochemical assay (JAK3)
[1] = tested on: IL-4 induced STAT6 phosphorylation in THP-1 human monocytic cells; assay: Cellular JAK potency assay, THP-1
Tyk2 = Tyk2 (Homo sapiens (Human), UniProt P29597); assay: LanthaScreen JAK biochemical assay (Tyk2)
Tyk2, sequence (P29597 whole entry): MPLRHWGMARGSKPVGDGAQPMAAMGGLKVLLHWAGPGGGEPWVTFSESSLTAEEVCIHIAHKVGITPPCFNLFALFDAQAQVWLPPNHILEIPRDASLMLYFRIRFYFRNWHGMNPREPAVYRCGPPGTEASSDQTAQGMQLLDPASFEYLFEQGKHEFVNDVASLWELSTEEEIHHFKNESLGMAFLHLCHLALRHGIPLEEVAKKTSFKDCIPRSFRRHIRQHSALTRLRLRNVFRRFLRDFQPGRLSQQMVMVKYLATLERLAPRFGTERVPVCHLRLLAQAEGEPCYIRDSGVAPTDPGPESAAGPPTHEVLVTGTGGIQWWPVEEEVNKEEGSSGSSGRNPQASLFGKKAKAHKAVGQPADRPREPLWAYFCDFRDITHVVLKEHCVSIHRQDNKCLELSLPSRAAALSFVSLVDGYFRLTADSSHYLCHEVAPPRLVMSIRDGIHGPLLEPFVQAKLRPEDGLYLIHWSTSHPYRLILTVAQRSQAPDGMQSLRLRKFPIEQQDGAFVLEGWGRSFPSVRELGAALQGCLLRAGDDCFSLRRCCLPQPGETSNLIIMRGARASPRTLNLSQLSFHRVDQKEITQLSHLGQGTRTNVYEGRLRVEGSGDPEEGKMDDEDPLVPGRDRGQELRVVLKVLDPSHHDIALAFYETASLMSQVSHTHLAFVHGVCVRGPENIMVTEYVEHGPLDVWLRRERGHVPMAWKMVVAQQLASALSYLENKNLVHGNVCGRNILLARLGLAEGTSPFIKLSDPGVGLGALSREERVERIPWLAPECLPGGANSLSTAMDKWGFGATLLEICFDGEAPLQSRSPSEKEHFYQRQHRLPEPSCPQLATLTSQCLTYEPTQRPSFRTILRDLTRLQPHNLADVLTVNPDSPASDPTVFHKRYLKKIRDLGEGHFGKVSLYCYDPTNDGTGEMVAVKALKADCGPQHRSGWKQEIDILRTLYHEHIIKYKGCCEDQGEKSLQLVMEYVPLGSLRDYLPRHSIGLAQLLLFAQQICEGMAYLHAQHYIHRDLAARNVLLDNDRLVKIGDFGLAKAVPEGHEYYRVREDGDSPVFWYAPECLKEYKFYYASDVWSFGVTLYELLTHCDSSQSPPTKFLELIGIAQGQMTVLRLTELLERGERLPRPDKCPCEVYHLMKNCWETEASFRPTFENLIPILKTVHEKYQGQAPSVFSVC

[2] = THP-1 cells, IL-4 induced STAT6 phosphorylation

JAK1, sequence (P23458 whole entry): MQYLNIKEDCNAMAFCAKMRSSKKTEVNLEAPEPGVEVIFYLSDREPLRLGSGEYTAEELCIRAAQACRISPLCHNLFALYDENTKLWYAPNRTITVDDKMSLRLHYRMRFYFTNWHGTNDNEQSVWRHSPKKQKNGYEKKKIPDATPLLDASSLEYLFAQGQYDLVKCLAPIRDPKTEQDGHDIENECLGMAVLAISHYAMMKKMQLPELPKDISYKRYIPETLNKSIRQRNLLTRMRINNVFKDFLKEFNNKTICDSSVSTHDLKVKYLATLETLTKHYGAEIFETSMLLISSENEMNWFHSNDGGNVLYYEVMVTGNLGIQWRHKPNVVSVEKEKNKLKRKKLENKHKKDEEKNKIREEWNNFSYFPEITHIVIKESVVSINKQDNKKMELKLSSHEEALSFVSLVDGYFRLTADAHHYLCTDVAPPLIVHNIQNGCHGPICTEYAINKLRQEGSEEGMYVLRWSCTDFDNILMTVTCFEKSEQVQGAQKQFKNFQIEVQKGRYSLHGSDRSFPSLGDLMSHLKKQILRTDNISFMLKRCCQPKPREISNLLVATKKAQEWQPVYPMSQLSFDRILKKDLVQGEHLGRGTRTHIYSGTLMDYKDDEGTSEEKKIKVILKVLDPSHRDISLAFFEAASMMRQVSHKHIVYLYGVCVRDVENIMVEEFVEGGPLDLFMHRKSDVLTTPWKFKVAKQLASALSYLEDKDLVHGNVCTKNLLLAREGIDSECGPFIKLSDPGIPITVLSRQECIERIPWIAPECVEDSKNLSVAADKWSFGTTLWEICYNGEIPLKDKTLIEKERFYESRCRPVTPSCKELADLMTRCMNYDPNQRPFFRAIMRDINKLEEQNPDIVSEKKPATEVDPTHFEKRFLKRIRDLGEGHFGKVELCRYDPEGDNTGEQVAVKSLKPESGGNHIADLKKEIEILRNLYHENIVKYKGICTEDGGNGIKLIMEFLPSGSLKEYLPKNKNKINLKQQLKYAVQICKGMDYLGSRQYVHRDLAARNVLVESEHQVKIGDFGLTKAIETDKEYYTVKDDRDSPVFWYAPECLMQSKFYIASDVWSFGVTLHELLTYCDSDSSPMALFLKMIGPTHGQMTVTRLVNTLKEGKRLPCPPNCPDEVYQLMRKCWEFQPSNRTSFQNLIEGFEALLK
JAK2, sequence (O60674 whole entry): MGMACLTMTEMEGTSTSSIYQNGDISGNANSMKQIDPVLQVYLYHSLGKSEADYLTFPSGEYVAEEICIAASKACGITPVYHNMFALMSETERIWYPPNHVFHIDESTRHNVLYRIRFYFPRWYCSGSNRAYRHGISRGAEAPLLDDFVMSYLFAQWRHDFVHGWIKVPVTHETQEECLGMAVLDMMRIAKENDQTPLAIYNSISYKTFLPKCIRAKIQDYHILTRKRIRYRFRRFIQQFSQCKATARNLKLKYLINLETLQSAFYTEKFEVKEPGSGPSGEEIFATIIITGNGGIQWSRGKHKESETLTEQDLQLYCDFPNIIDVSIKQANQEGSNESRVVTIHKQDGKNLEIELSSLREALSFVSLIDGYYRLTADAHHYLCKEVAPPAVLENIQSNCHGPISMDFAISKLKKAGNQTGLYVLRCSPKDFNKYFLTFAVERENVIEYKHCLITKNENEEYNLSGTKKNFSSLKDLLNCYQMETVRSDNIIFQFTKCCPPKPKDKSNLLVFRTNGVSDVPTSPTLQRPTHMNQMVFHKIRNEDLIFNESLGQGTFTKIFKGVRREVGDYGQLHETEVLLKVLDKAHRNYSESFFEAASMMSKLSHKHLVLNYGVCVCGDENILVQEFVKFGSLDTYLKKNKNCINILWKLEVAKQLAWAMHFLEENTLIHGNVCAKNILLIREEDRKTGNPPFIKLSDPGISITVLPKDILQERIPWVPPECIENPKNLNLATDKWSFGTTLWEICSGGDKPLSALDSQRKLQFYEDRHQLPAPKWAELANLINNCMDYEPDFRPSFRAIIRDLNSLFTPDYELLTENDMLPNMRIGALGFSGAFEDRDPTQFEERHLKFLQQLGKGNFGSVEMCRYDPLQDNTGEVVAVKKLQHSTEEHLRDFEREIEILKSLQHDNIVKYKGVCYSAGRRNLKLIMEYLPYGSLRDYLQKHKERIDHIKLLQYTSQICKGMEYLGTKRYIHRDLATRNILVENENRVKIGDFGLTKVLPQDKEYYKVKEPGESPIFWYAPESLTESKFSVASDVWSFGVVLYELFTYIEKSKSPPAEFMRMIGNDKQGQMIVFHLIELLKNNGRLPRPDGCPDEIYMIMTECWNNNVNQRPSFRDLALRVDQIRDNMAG

SMILES	JAK 2 (pKi) (JAK2)	JAK 1 (pKi) (JAK1)	JAK 3 (pKi) (JAK3)	THP-1 IL4 pIC50 ([1]; IL-4 induced STAT6 phosphorylation, THP-1 cells)	Tyk 2 (pKi) (Tyk2)	THP-1 IL4 pIC50 [1, 2]
Cc1cc(Nc2cc3nc(CS(C)(=O)=O)ccc3c(N[C@@H]3C[C@H]4CC[C@@H](C3)N4CCC(F)(F)F)n2)n[nH]1 [Example 5-43]	B (B represents a pKi value between 9 and 10 (Ki between 1 nM and 0.1 nM))	B (B represents a pKi value between 9 and 10 (Ki between 1 nM and 0.1 nM))	C (C represents a pKi value between 7 and 9 (Ki between 100 nM and 1 nM))	B (B represents a pEC50 value between 6.7 and 7.5 (EC50 between 200 nM and 32 nM))	B (B represents a pKi value between 9 and 10 (Ki between 1 nM and 0.1 nM))	
Cc1cnc2cc(Nc3cc(C)[nH]n3)nc(N[C@@H]3C[C@H]4CCC[C@@H](C3)N4Cc3ccncc3)c2c1 [Example 6-10]	B (B represents a pKi value between 9 and 10 (Ki between 1 nM and 0.1 nM))	B (B represents a pKi value between 9 and 10 (Ki between 1 nM and 0.1 nM))	C (C represents a pKi value between 7 and 9 (Ki between 100 nM and 1 nM))		B (B represents a pKi value between 9 and 10 (Ki between 1 nM and 0.1 nM))	B (B represents a pEC50 value between 6.7 and 7.5 (EC50 between 200 nM and 32 nM))
COc1cnc2cc(Nc3cc(C)[nH]n3)nc(NC3CC4CCCC(C3)N4C(=O)C(C)O)c2c1 (stereo not drawn) [Example 6-27]	B (B represents a pKi value between 9 and 10 (Ki between 1 nM and 0.1 nM))	B (B represents a pKi value between 9 and 10 (Ki between 1 nM and 0.1 nM))	C (C represents a pKi value between 7 and 9 (Ki between 100 nM and 1 nM))		C (C represents a pKi value between 7 and 9 (Ki between 100 nM and 1 nM))	B (B represents a pEC50 value between 6.7 and 7.5 (EC50 between 200 nM and 32 nM))
CCC(C)C(=O)N1C2CCC1CC(Nc1nc(Nc3cc(C)[nH]n3)cc3ncc(C(=O)OC)cc13)C2 (stereo not drawn) [Example 6-38]	B (B represents a pKi value between 9 and 10 (Ki between 1 nM and 0.1 nM))	B (B represents a pKi value between 9 and 10 (Ki between 1 nM and 0.1 nM))	C (C represents a pKi value between 7 and 9 (Ki between 100 nM and 1 nM))		C (C represents a pKi value between 7 and 9 (Ki between 100 nM and 1 nM))	B (B represents a pEC50 value between 6.7 and 7.5 (EC50 between 200 nM and 32 nM))
COC(=O)c1cnc2cc(Nc3cc(C)[nH]n3)nc(N[C@@H]3C[C@H]4CCC[C@@H](C3)N4C[C@H]3CCC(=O)O3)c2c1 [Example 6-49]	B (B represents a pKi value between 9 and 10 (Ki between 1 nM and 0.1 nM))	B (B represents a pKi value between 9 and 10 (Ki between 1 nM and 0.1 nM))	C (C represents a pKi value between 7 and 9 (Ki between 100 nM and 1 nM))		C (C represents a pKi value between 7 and 9 (Ki between 100 nM and 1 nM))	B (B represents a pEC50 value between 6.7 and 7.5 (EC50 between 200 nM and 32 nM))
Cc1cc(Nc2nc(NC3CC4CCC(C3)N4C(=O)C(C)O)c3cccnc3c2F)n[nH]1 (stereo not drawn) [Example 8-8]	C (C represents a pKi value between 7 and 9 (Ki between 100 nM and 1 nM))	C (C represents a pKi value between 7 and 9 (Ki between 100 nM and 1 nM))	C (C represents a pKi value between 7 and 9 (Ki between 100 nM and 1 nM))		C (C represents a pKi value between 7 and 9 (Ki between 100 nM and 1 nM))	C (C represents a pEC50 value<6.7 (EC50>200 nM))
